From patent publication US20240270758A1, “PYRIDINO-OR PYRIMIDO-CYCLIC COMPOUND, PREPARATION METHOD THEREFOR AND MEDICAL USE THEREOF” (Genfleet Therapeutics (Shanghai) Inc., priority 2021, published 2024)

Tests used:
[1] = molecular target: KRAS^G12D mutant protein binding to RBD region fragment of RAF1 protein (Homo sapiens (Human), UniProt P01116, G12D); test: KRAS-RAF1 binding assay (HTRF), KRAS G12D; details: His-KRAS^G12D, GST-RAF1-RBD, GTP
Description: (§1) GST-RAF1-RBD was purchased from BPS Bioscience; Cat. NO.: 100519; KRAS^G12D was purchased from BPS Bioscience; Cat. NO.: 100623; KRAS^wt was purchased from Reactionbiology; GTP was purchased from Sigma; Cat. NO.: G8877; Mab Anti GST-XL665 was purchased from cisbio; Cat. NO.: 61GSTXLF; Eu-W1024-anti-6×HIS was purchased from PE; Cat. NO.: AD0111; ProxiPlate-384-Plates was purchased from PerkinElmer; Cat. NO.: 6008289; DMSO was purchased from VWR AMRESCO; Cat. NO.: 0231-500ML; microplate reader was purchased from PerkinElmer; Cat. NO.: Envison;
(§2) This experiment is intended to investigate the inhibitory effect of compounds on the binding of KRAS^G12D mutant protein or KRAS^Wt (wild type) protein to fragments of the RBD region fragment of RAF1 protein. A 500×3-fold gradient concentration stock of compound was prepared using DMSO and diluted 50-fold into a 10× stock of compound using reaction buffer. To the reaction wells of an ELISA plate (ProxiPlate-384-Plates), was first added 3 µL of His-KRAS^G12D protein or KRAS^wt protein, then added 1 μL of 200 µM GTP and incubated for 30 min, then added 2 μL of 10× compound or reaction buffer with 2% DMSO (positive control) and incubated for 30 min, then added 4 μL of GST-RAF1-RBD protein or reaction buffer (negative control) and incubated for 15 min, then added […] anti-His antibody and XL665-labeled anti-GST antibody mixed well in advance and incubated for 60 min before reading HTRF signal by microplate reader. The inhibition ratio of compounds on KRAS protein (G12D mutant or wild type) and RAF1 binding was calculated IR (%)=(positive control signal-compound well signal)/(positive control signal-negative control signal)×100% and IC50 values were calculated by fitting compound concentrations and corresponding inhibition ratios using the Prism 8 four-parameter method. […] While the inhibition IC50 values of the compounds on the binding of KRAS^wt (wild type) protein to the RBD region fragment of RAF1 protein was more than 40 nM or 100 nM, or more than 500 nM, or even more than 1 μM or 2 μM.

[2] = molecular target: KRAS^wt (wild type) protein binding to RBD region fragment of RAF1 protein (Homo sapiens (Human), UniProt P01116); test: KRAS-RAF1 binding assay (HTRF), KRAS wild type; details: GST-RAF1-RBD, GTP
KRAS^wt (wild type) protein binding to RBD region fragment of RAF1 protein, sequence (P01116-2 other isoform, or with tags, fused parts or gaps): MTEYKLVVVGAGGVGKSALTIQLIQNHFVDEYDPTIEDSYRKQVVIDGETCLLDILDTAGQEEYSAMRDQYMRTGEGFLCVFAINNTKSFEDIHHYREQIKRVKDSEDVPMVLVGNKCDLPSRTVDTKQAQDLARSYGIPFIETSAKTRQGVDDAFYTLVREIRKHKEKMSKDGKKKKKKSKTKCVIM
Description: as §1, §2

[3] = tested on: p-ERK in AGS cells (KRAS^G12D mutation); test: Cell p-ERK detection assay; type: cell-based, human; details: 3 h incubation, HTRF
Method in brief: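 AGS cells (KRAS G12D, ~20,000/well in F12K+10% FBS) treated next day with compound at 3.16-fold dilutions, 0.1% DMSO final, for 3 h. Lysates assayed for ERK phospho-T202/Y204 by HTRF after 4 h; inhibition vs DMSO and blank, IC50 from four-parameter fit.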

[4] = tested on: AGS cells (KRAS^G12D mutation); test: Cell proliferation inhibition assay (3D, CellTiter-Glo), AGS; type: cell-based, human; details: 3D cell model, 5 days
Method in brief: (§3)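 3D spheroids of AsPC-1 (800 cells/well, RPMI-1640) or AGS (400 cells/well, F-12K), 10% FBS, seeded overnight, then exposed 5 days to 3.16-fold compound dilutions (0.1% DMSO final). CellTiter-Glo 3D luminescence gives inhibition relative to DMSO and medium blanks; IC50 from four-parameter fit.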

[5] = tested on: AsPC-1 cells (KRAS^G12D mutation); test: Cell proliferation inhibition assay (3D, CellTiter-Glo), AsPC-1; type: cell-based, human; details: 3D cell model, 5 days
Method in brief: as §3

KRAS^G12D mutant protein binding to RBD region fragment of RAF1 protein, sequence (P01116-2 other isoform, or with tags, fused parts or gaps G12D): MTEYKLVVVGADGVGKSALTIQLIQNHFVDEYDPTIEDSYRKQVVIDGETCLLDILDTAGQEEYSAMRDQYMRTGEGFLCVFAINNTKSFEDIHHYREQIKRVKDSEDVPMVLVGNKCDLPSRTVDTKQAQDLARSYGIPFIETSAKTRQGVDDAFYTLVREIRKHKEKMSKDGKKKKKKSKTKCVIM

Row | IC50 [3] [nM] | IC50 [4] [nM] | IC50 [5] [nM] | Compound | IC50 [1] [nM] | IC50 [2] [nM] | IC50 ([3]; Homo sapiens, AGS, 3 h) [nM] | IC50 ([4]; Homo sapiens, AGS, 120 h) [nM] | IC50 ([5]; Homo sapiens, ASPC1, 120 h) [nM]
1 | – | – | – | C#Cc1cccc2cc(O)cc(-c3ncc4c(N5C[C@H]6C=C[C@@H](C5)N6)nc(OCC56CCCN5CC(F)(F)C6)nc4c3F)c12 (stereo partly drawn) [Example Z15, 4-(4-((1R,5S)-3,8-diazabicyclo[3.2.1]oct-6-en-3-yl)-2-((2,2-difluorotetrahydro-1H-pyrrolizin-7a(5H)-yl)methoxy)-8-fluoropyrido[4,3-d]pyrimidin-7-yl)-5-ethynylnaphthalen-2-ol] | 33 | > 3000 | 60.7 | 194 | 947
2 | – | – | – | C#Cc1cccc2cc(O)cc(-c3ncc4c(N5C[C@H]6C=C[C@@H](C5)N6)nc(OCC56CCCN5CCC6)nc4c3F)c12 [Example Z4, 4-(4-((1R,5S)-3,8-diazabicyclo[3.2.1]oct-6-en-3-yl)-8-fluoro-2-((tetrahydro-1H-pyrrolizin-7a(5H)-yl)methoxy)pyrido[4,3-d]pyrimidin-7-yl)-5-ethynylnaphthalen-2-ol] | 20.6 | 393 | 47.1 | 360 | –
3 | – | – | – | C=C1CN2CCCC2(COc2nc(N3C[C@H]4CC[C@@H](C3)N4)c3cnc(-c4cc(O)cc5cccc(CC)c45)c(F)c3n2)C1 (stereo partly drawn) [Example Z11, 4-(4-((1R,5S)-3,8-diazabicyclo[3.2.1]octan-3-yl)-8-fluoro-2-((2-methylenetetrahydro-1H-pyrrolizin-7a(5H)-yl)methoxy)pyrido[4,3-d]pyrimidin-7-yl)-5-ethylnaphthalen-2-ol] | 45.9 | 263 | 4.91 | 2.5 | 50.6
4 | – | – | – | C#Cc1cccc2cc(O)cc(-c3ncc4c(N5C[C@H]6C=C[C@@H](C5)N6)nc(OC[C@@]56CCCN5C[C@H](F)C6)nc4c3F)c12 [Example Z7, 4-(4-((1R,5S)-3,8-diazabicyclo[3.2.1]oct-6-en-3-yl)-8-fluoro-2-(((2R,7aS)-2-fluorotetrahydro-1H-pyrrolizin-7a(5H)-yl)methoxy)pyrido[4,3-d]pyrimidin-7-yl)-5-ethynylnaphthalen-2-ol] | 72.6 | 1030 | 12 | 32.6 | 433
5 | 2.86 | 7.7 | 9.3 | C#Cc1cccc2cc(O)cc(-c3c(F)cc4c(N5C[C@H]6CC[C@@H](C5)N6)nc(OCC56CCCN5CC(=C)C6)nc4c3F)c12 (stereo partly shown) [Example Z20] | 105 | 110 | – | – | –
6 | – | – | – | C#Cc1cccc2cc(O)cc(-c3ncc4c(N5C[C@H]6CC[C@@H](C5)N6)nc(OCC56CC(=C)CN5CC(F)C6)nc4c3F)c12 (stereo partly drawn) [Example Z17, 4-(4-((1R,5S)-3,8-diazabicyclo[3.2.1]octan-3-yl)-8-fluoro-2-((2-fluoro-6-methylenetetrahydro-1H-pyrrolizine 7a(5H)-yl)methoxy)pyrido[4,3-d]pyrimidin-7-yl)-5-ethynylnaphthalen-2-ol] | 50 | 64.3 | 1.16 | 6.8 | 35.7
7 | – | – | – | C#Cc1cccc2cc(O)cc(-c3ncc4c(N5C[C@H]6CC[C@@H](C5)N6)nc(OCC56CCCN5CC=C6CC)nc4c3F)c12 (stereo partly drawn) [Example Z16, 4-(4-((1R,5S)-3,8-diazabicyclo[3.2.1]octan-3-yl)-2-((7-ethyl-2,3-dihydro-1H-pyrrolizin-7a(5H)-yl)methoxy)-8-fluoropyrido[4,3-d]pyrimidin-7-yl)-5-ethynylnaphthalen-2-ol] | 60.7 | > 1000 | 54.9 | 92.6 | 555
8 | 7.57 | 45.3 | 75.5 | C#Cc1cccc2cc(O)cc(-c3ncc4c(N5CC6CCC(C5)N6)nc(OCC56CCCN5CCC(=C)C6)nc4c3F)c12 [Example Z18, 4-(4-((1R,5S)-3,8-diazabicyclo[3.2.1]octan-3-yl)-8-fluoro-2-((7-methylenehexahydroindolin-8a(1H)-yl)methoxy)pyrido[4,3-d]pyrimidin-7-yl)-5-ethynylnaphthalen-2-ol] | 59.4 | > 1000 | – | – | –
9 | – | – | – | C#Cc1cccc2cccc(-c3ncc4c(N5C[C@H]6C=C[C@@H](C5)N6)nc(OCC56CCCN5CCC6)nc4c3F)c12 [Example Z6, 4-((1R,5S)-3,8-diazabicyclo[3.2.1]oct-6-en-3-yl)-7-(8-ethynylnaphthalen-1-yl)-8-fluoro-2-((tetrahydro-1H-pyrrolizin-7a(5H)-yl)methoxy)pyrido[4,3-d]pyrimidine] | 51.6 | > 10000 | 426 | 815 | –
10 | – | – | – | C#Cc1c(F)ccc2cc(O)cc(-c3ccc4c(N5C[C@H]6CC[C@@H](C5)N6)nc(OCC56CCCN5CCC6)nc4c3F)c12 [Example Z9, 4-(4-((1R,5S)-3,8-diazabicyclo[3.2.1]octan-3-yl)-8-fluoro-2-((tetrahydro-1H-pyrrolizin-7a(5H)-yl)methoxy)quinazolin-7-yl)-5-ethynyl-6-fluoronaphthalen-2-ol] | 79.6 | 261 | 23.7 | 145 | 300
11 | – | – | – | C#Cc1c(F)ccc2cc(O)cc(-c3ncc4c(N5C[C@H]6CC[C@@H](C5)N6)nc(OC[C@]56CCCN5CC(=C)C6)nc4c3F)c12 (single isomer, unassigned) [Example Z13] | 53.6 | 101 | 11 | 13 | 67.2
12 | – | – | – | C#Cc1cccc2cc(O)cc(-c3ncc4c(N5C[C@H]6CC[C@@H](C5)N6)nc(OCC56CCN5CC(=C)C6)nc4c3F)c12 (stereo partly drawn) [Example Z19, 4-(4-((1R,5S)-3,8-diazabicyclo[3.2.1]octan-3-yl)-8-fluoro-2-((3-methylene-1-azabicyclo[3.2.0]heptan-5-yl)methoxy)pyrido[4,3-d]pyrimidin-7-yl)-5-ethynylnaphthalen-2-ol] | 46 | 67.8 | 9.03 | 31.7 | 68.3
13 | – | – | – | C#Cc1cccc2cc(O)cc(-c3ncc4c(N5C[C@H]6CC[C@@H](C5)N6)nc(OCC56CCCN5CC(=C(C)C)C6)nc4c3F)c12 (stereo partly drawn) [Example Z14, 4-(4-((1R,5S)-3,8-diazabicyclo[3.2.1]octan-3-yl)-8-fluoro-2-((2-(propan-2-ylidene)tetrahydro-1H-pyrrolizin-7a(5H)-yl)methoxy)pyrido[4,3-d]pyrimidin-7-yl)-5-ethynylnaphthalen-2-ol] | 39.6 | 110 | 10.1 | 27.4 | 143
14 | – | – | – | C#Cc1cccc2cc(O)cc(-c3ncc4c(N5C[C@H]6CC[C@@H](C5)N6)nc(OCC56CCCN5CC(=CF)C6)nc4c3F)c12 (stereo partly drawn) [Example Z5, 4-(4-((1R,5S)-3,8-diazabicyclo[3.2.1]octan-3-yl)-8-fluoro-2-((2-(fluoromethylene)tetrahydro-1H-pyrrolizin-7a(5H)-yl)methoxy)pyrido[4,3-d]pyrimidin-7-yl)-5-ethynylnaphthalen-2-ol] | 36.3 | 43.7 | 1.16 | 4.5 | 29.4

Row | Compound | IC50 [3] [nM] | IC50 [4] [nM] | IC50 [5] [nM] | IC50 [1] [nM] | IC50 [2] [nM] | IC50 ([3]; Homo sapiens, AGS, 3 h) [nM] | IC50 ([4]; Homo sapiens, AGS, 120 h) [nM] | IC50 ([5]; Homo sapiens, ASPC1, 120 h) [nM]
15 | C#Cc1c(F)ccc2cc(O)cc(-c3ncc4c(N5C[C@H]6CC[C@@H](C5)N6)nc(OCC56CCCN5CC(=C)C6)nc4c3F)c12 (stereo partly shown) [Example Z3] | 2.11 | 3 | 16 | 16.2 | 64.5 | – | – | –
